The subject of experiment [1] is thrombus formation in the carotid artery (70% FeCl3 patch). In words: Anti-thrombotic activity, FeCl3-induced carotid artery thrombosis. The format is in vivo, Male Wistar rats. Particulars: po, % animals protected, read-out: Antithrombotic activity (% protection); for responders at 90 µmol/kg: 90 μmol/kg p.o. The method, then:
Anti-Thrombotic Activity Assessment Experimental Procedure Male Wistar rats weighing 250-300 g were used after an acclimatization period of five days, and animals were divided in groups of 8 animals each for the treatments. […] The vehicle used to dissolve the products consisted of 1% Cremophor EL 27963, 1% Tween 80 and 0.5% Methocel E-15 in distilled water. After a fasting period of 8 hours with free access to drinking water each product was given by gavage 1 hour before induction of thrombosis. Thrombus formation was induced using a patch embedded with 70% FeCl3 solution applied onto the carotid artery using the same procedure described by Feuerstein G Z et al and later modified by Kurz et al (Feuerstein G Z, et al Artherioscler. Thromb. Vasc. Biol. 1999, 19: 2554-2562, Kurz K D, et al Thromb. Res. 1990, 60:269-280). Anti-thrombotic efficacy was evaluated at different times after dosage. Rats were anesthetized with sodium pentobarbital and then placed on a dorsal position over a thermal blanket laid on a surgical board and heated at 37° C. The left carotid artery was dissected and an electromagnetic blood flow probe was placed on the artery to measure blood flow. After application of the thrombotic stimuli, blood flow was monitored for the following 30 minutes. The vessel was considered occluded by the thrombus when flow reached 0.0 ml/min. Data were analysed by contingency tables using the Graph Pad Prism Program. P values were calculated using Fisher's exact test, values of p<0.05 were considered statistically significant. Results were expressed as % animals protected.

Experiment [2] deals with coronary angina caused by coronary obstruction (35% ferric chloride patch on left anterior descending coronary artery). The experiment is described as follows: Anti-anginal activity, ferric chloride-induced coronary angina (ECG S-wave). The format is in vivo, Male Wistar rats. Conditions: Rattus norvegicus, po, read-out: Antianginal activity (% inhibition of S-wave decrease). The method, then: Anti-Anginal Activity Assessment
Male Wistar rats weighing 250-300 g were used after an acclimatization period of five days, and animals were divided in groups of 8 for each treatment. In all experiments, rats were treated with 90 μmol/kg of each product by oral gavage using an administration volume of 10 ml/kg unless otherwise stated. The vehicle used to dissolve the products consisted of 1% Cremophor EL 27963, 1% Tween 80 and 0.5% Methocel E-15 in distilled water. […]
The procedure used to test the anti-anginal activity was that described by Hirata Y et al (Hirata Y, et al. Journal of Cardiovascular Pharmacology 1998, 31: 322-326).
After treatment, animals were anaesthetized with pentobarbital and electrodes were set for standard limb lead II electrocardiogram recording (Grass polygraph model 7, amplifier 7DA and pre-amplifier 7P1).
To induce coronary angina caused by coronary obstruction, a 35%-ferric chloride embedded mini patch was applied onto the left anterior descending coronary artery just below the left auricle. In all groups, after application of the patch, the ECG was recorded during 10 minutes. The shortening of the S-wave amplitude was measured on the recorded ECG. Data were collected with a Biopac system model MP100 connected to a Pentium PC. Results were expressed as % inhibition of S-wave decrease vs the untreated control.

The mark [3] stands for this setting: Rattus norvegicus, 1 h, 1 h after dosage.
[4] abbreviates: Rattus norvegicus, 4 h, 4 h after dosage.
[5] abbreviates: 1 h, rat, 90 μmol/kg p.o., 1 h, vs untreated control.
Setting [6] is: 2 h, rat, 90 μmol/kg p.o., 2 h, vs untreated control.
[7] abbreviates: 4 h, rat, 90 μmol/kg p.o., 4 h, vs untreated control.
Setting [8] is: Rattus norvegicus, 0.5 h, ½ h after dosage.
Where [9] appears, read: Rattus norvegicus, 2 h, 2 h after dosage.

Like-named read-outs stand apart in the source and are kept apart here.

Turning to `CCCS[C@@H]1CO[C@H]2[C@@H]1OC[C@H]2O[N+](=O)[O-]` [Ej. 12, (3R,3aS,6R,6aS)-6-(propylthio)hexahydrofuro[3,2-b]furan-3-yl nitrate], the results for the responders at 90 µmol/kg in experiment [1] (setting [3]) and in experiment [1] (setting [4]) were 32% and 16%, respectively. For the same molecule, the inhibition in vivo at 90 µmol/kg stood at 14% in experiment [2] (setting [5]), 0% in experiment [2] (setting [6]) and 0% in experiment [2] (setting [7]).

Regarding `CCS[C@H]1CO[C@H]2[C@@H]1OC[C@H]2O[N+](=O)[O-]` [Ej. 1, (3R,3aS,6S,6aS)-6-(ethylthio)hexahydrofuro[3,2-b]furan-3-yl nitrate], in experiment [1] (rat, 1 h after dosage), the responders at 90 µmol/kg was determined as 32%. For the same molecule, the inhibition in vivo at 90 µmol/kg came to 29% in experiment [2] (1 h) and 0% in experiment [2] (4 h).

`CCC[S+]([O-])[C@H]1CO[C@H]2[C@@H]1OC[C@H]2O[N+](=O)[O-]` (stereo partly drawn) [Ej. 5, (3R,3aS,6S,6aS)-6-((R,S)-propylsulfinyl)hexahydrofuro[3,2-b]furan-3-yl nitrate]: the responders at 90 µmol/kg in experiment [1] (setting [8]) amounted to 40%; in experiment [1] (setting [3]) it was 76%; in experiment [1] (setting [9]) it was 67%; in experiment [1] (setting [4]), 50%. The inhibition in vivo at 90 µmol/kg in experiment [2] (setting [5]) was determined as 87%; in experiment [2] (setting [7]), 58%.

With `CCS(=O)(=O)[C@@H]1CO[C@H]2[C@@H]1OC[C@H]2O[N+](=O)[O-]` [Ej. 15, (3R,3aS,6R,6aS)-6-(ethylsulfonyl)hexahydrofuro[3,2-b]furan-3-yl nitrate], the responders at 90 µmol/kg in experiment [1] (setting [3]) came to 9%; in experiment [1] (setting [4]) it was 0%. Also, the inhibition in vivo at 90 µmol/kg in experiment [2] (setting [5]) was 21%; in experiment [2] (setting [6]) it was 0%; in experiment [2] (setting [7]), 0%.

Regarding `CCCS(=O)(=O)[C@@H]1CO[C@H]2[C@@H]1OC[C@H]2O[N+](=O)[O-]` [Ej. 16, (3R,3aS,6R,6aS)-6-(propylsulfonyl)hexahydrofuro[3,2-b]furan-3-yl nitrate], the responders at 90 µmol/kg came to 40% in experiment [1] (setting [3]) and 20% in experiment [1] (setting [4]). The figures for the inhibition in vivo at 90 µmol/kg in experiment [2] (setting [5]) and in experiment [2] (setting [7]) were 32% and 30%, respectively.

Take `CC(=O)S[C@@H]1CO[C@H]2[C@@H]1OC[C@H]2O[N+](=O)[O-]` [Ej. 10, S-(3R,3aS,6R,6aS)-6-(nitrooxy)hexahydrofuro[3,2-b]furan-3-yl ethanethioate]: the responders at 90 µmol/kg in experiment [1] (setting [8]) came out at 67%; in experiment [1] (setting [3]), 75%; in experiment [1] (setting [9]), 83%; in experiment [1] (setting [4]), 40%. The inhibition in vivo at 90 µmol/kg was determined as 69% in experiment [2] (setting [5]) and 57% in experiment [2] (setting [7]).

Regarding `O=[N+]([O-])O[C@@H]1CO[C@H]2[C@@H]1OC[C@@H]2S` [Comp 1, (3R,3aS,6S,6aS)-6-(mercapto)hexahydrofuro[3,2-b]furan-3-yl nitrate, reference compound], in experiment [1] (Rattus norvegicus, 1 h, 230 μmol/kg p.o., 1 h after dosage), the responders at 230 µmol/kg is 50%. For the same molecule, the figures for the responders at 90 µmol/kg in experiment [1] (setting [9]) and in experiment [1] (setting [4]) were 32% and 16%, respectively. Moreover, the inhibition in vivo at 90 µmol/kg in experiment [2] (0.5 h, rat, 90 μmol/kg p.o., ½ h, vs untreated control) came to 0%; in experiment [2] (setting [5]), 0%; in experiment [2] (setting [6]), 50%.
